Like-named read-outs stand apart in the source and are kept apart here. Starred links: 1 amine or outer side, 2 acyl side, 3 side chain; linkers in the order of their positions; H or OH if unused. Non-standard residues stand in square brackets, D forms with d. Residues, ends and D or L forms follow the SMILES beside them. dPro(4R-(4-pyridylmethyl)) = O=C(O)[C@H]1C[C@@H](Cc2ccncc2)CN1; X22 = Nc1ncc(-c2ccc(C[C@H]3CCN([*:1])[C@H]3C(=O)[*:2])cc2)cn1; Trp(βS-Me,4-F) = C[C@@H](c1c[nH]c2cccc(F)c12)[C@H](N)C(=O)O; Bip(4'-COOH) = N[C@@H](Cc1ccc(-c2ccc(C(=O)O)cc2)cc1)C(=O)O; Ala(1-bicyclo(1.1.1)pentyl) = N[C@@H](CC12CC(C1)C2)C(=O)O; X26 = O=C(O)c1ccc(-c2ncc(C[C@H](N[*:1])C(=O)[*:2])cn2)cc1; dPro(4R-Bzl(4-F)) = O=C(O)[C@H]1C[C@@H](Cc2ccc(F)cc2)CN1; dPro(3S-(4-F-Bn)) = O=C(O)[C@@H]1NCC[C@@H]1Cc1ccc(F)cc1; X7 = Nc1cc(-c2ccc(C[C@H](N[*:1])C(=O)[*:2])cc2)ccn1; X4 = O=C([C@H]1[C@@H](Cc2ccncc2)CCN1[*:1])[*:2]; Ala(pyrimidin-5-yl) = N[C@@H](Cc1cncnc1)C(=O)O; Phe(4-COOH) = N[C@@H](Cc1ccc(C(=O)O)cc1)C(=O)O; Bip = N[C@@H](Cc1ccc(-c2ccccc2)cc1)C(=O)O; Pro(cis-4-F) = O=C(O)[C@@H]1C[C@H](F)CN1; Ala(4-THP) = N[C@@H](CC1CCOCC1)C(=O)O; AEF = NCCOc1ccc(C[C@H](N)C(=O)O)cc1; Dap(CONH2) = NC(=O)NC[C@H](N)C(=O)O; cisHyp = O=C(O)[C@@H]1C[C@H](O)CN1; d(αMeD) = C[C@@](N)(CC(=O)O)C(=O)O; h4Pal = N[C@@H](CCc1ccncc1)C(=O)O; aIle = CC[C@@H](C)[C@H](N)C(=O)O; hPhe = N[C@@H](CCc1ccccc1)C(=O)O; 4Pal = N[C@@H](Cc1ccncc1)C(=O)O; aThr = C[C@H](O)[C@H](N)C(=O)O; αMeD = C[C@](N)(CC(=O)O)C(=O)O; d(αMeS) = C[C@@](N)(CO)C(=O)O; αMeK = C[C@](N)(CCCCN)C(=O)O; dOrn = NCCC[C@@H](N)C(=O)O; Dab = NCC[C@H](N)C(=O)O; Aib = CC(C)(N)C(=O)O
Target: T1, IL-1β (Homo sapiens, UniProt P01584)
T1 construct: purchased BioLegend 579404
Assay: IL-6 assay in MRC5 cells: inhibition of IL-1β induced IL-6 secretion (AlphaLISA)
Assay type: cell-based
Conditions: inhibition of IL-1β induced IL-6 secretion in MRC5 cells, read-out: MRC5 IC50
Summary of the method: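 Compound was pre-incubated 1 h at ambient temperature with recombinant human IL-1β at 2λ EC80 before adding human lung fibroblast MRC5 cells (3000/well) in EMEM with 0.025% BSA. After overnight culture at 37 °C, 5% CO2, secreted IL-6 in conditioned medium was measured by AlphaLISA; IC50 from 4-parameter logistic fits.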

T1 sequence (P01584 117-269): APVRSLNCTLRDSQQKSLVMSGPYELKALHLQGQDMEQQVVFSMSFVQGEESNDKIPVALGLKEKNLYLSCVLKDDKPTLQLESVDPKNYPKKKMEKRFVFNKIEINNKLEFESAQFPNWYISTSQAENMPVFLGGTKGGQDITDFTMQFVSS

SMILES | IC50 [nM] | IC50 (compound pre-incubated 1 hour with recombinant human IL-1β) [nM]
C[C@@H](c1c[nH]c2cccc(F)c12)[C@@H]1NC(=O)[C@@H]2C[C@H](F)CN2C(=O)CNC(=O)[C@H](Cc2ccc(C(=O)O)cc2)NC(=O)[C@H](Cc2ccncc2)NC(=O)[C@H](Cc2ccc(-c3ccc(C(=O)O)cc3)cc2)NC(=O)[C@H]2[C@@H](Cc3ccc(F)cc3)CCN2C(=O)CNC(=O)[C@H](CCN)NC(=O)[C@H](CCC(N)=O)NC(=O)[C@H](Cc2cncnc2)NC(=O)[C@@](C)(CC(=O)O)NC(=O)[C@H](Cc2c[nH]c3ccccc23)NC(=O)[C@H](CO)NC(=O)C(C)(C)NC1=O [Example 331] (cyclo([Bip(4'-COOH)][4Pal][Phe(4-COOH)]G[Pro(cis-4-F)][Trp(βS-Me,4-F)][Aib]SW[d(αMeD)][Ala(pyrimidin-5-yl)]Q[Dab]G[dPro(3S-(4-F-Bn))])) | 0.011 | –
C[C@@H](c1c[nH]c2cccc(F)c12)[C@@H]1NC(=O)[C@@H]2C[C@H](F)CN2C(=O)CNC(=O)[C@H](Cc2ccc(C(=O)O)cc2)NC(=O)[C@H](Cc2ccncc2)NC(=O)[C@H](Cc2ccc(-c3ccnc(N)c3)cc2)NC(=O)[C@H]2[C@@H](Cc3ccc(F)cc3)CCN2C(=O)CNC(=O)[C@H](CCN)NC(=O)[C@H](CCC(N)=O)NC(=O)[C@H](Cc2cncnc2)NC(=O)[C@@](C)(CC(=O)O)NC(=O)[C@H](Cc2c[nH]c3ccccc23)NC(=O)[C@H](CO)NC(=O)C(C)(C)NC1=O [Example 385] (cyclo([X7][4Pal][Phe(4-COOH)]G[Pro(cis-4-F)][Trp(βS-Me,4-F)][Aib]SW[d(αMeD)][Ala(pyrimidin-5-yl)]Q[Dab]G[dPro(3S-(4-F-Bn))])) | 0.023 | –
CC[C@@H](C)[C@@H]1NC(=O)C(C)(C)NC(=O)[C@H]([C@@H](C)c2c[nH]c3cccc(F)c23)NC(=O)[C@@H]2C[C@H](F)CN2C(=O)CNC(=O)[C@H](Cc2ccc(C(=O)O)cc2)NC(=O)[C@H](Cc2ccncc2)NC(=O)[C@H](Cc2ccc(-c3ccc(C(=O)O)cc3)cc2)NC(=O)[C@H]2C[C@@H](Cc3ccc(F)cc3)CN2C(=O)CNC(=O)[C@H](CCN)NC(=O)[C@H](CCC(N)=O)NC(=O)[C@H](Cc2cncnc2)NC(=O)[C@](C)(CCCCN)NC(=O)[C@H](Cc2c[nH]c3ccccc23)NC1=O [Example 136] (cyclo([Bip(4'-COOH)][4Pal][Phe(4-COOH)]G[Pro(cis-4-F)][Trp(βS-Me,4-F)][Aib][aIle]W[αMeK][Ala(pyrimidin-5-yl)]Q[Dab]G[dPro(4R-Bzl(4-F))])) | 0.027 | –
C[C@@H](c1c[nH]c2cccc(F)c12)[C@@H]1NC(=O)[C@@H]2C[C@H](O)CN2C(=O)CNC(=O)[C@H](Cc2ccc(C(=O)O)cc2)NC(=O)[C@H](CC23CC(C2)C3)NC(=O)[C@H](Cc2ccc(-c3ccc(C(=O)O)cc3)cc2)NC(=O)[C@H]2C[C@@H](Cc3ccncc3)CN2C(=O)CNC(=O)[C@H](CCN)NC(=O)[C@H](CCC(N)=O)NC(=O)[C@H](CC2CCOCC2)NC(=O)[C@@](C)(CO)NC(=O)[C@H](Cc2c[nH]c3ccccc23)NC(=O)[C@H](CO)NC(=O)C(C)(C)NC1=O [Example 192] (cyclo([Bip(4'-COOH)][Ala(1-bicyclo(1.1.1)pentyl)][Phe(4-COOH)]G[cisHyp][Trp(βS-Me,4-F)][Aib]SW[d(αMeS)][Ala(4-THP)]Q[Dab]G[dPro(4R-(4-pyridylmethyl))])) | 0.021 | –
C[C@@H](c1c[nH]c2cccc(F)c12)[C@@H]1NC(=O)[C@@H]2C[C@H](F)CN2C(=O)CNC(=O)[C@H](Cc2ccc(C(=O)O)cc2)NC(=O)[C@H](Cc2ccncc2)NC(=O)[C@H](Cc2ccc(-c3ccc(C(=O)O)cc3)cc2)NC(=O)[C@H]2[C@@H](Cc3ccc(-c4cnc(N)nc4)cc3)CCN2C(=O)CNC(=O)[C@H](CCN)NC(=O)[C@H](CCC(N)=O)NC(=O)[C@H](Cc2cncnc2)NC(=O)C(C)(C)NC(=O)[C@H](Cc2c[nH]c3ccccc23)NC(=O)[C@H](CCC(=O)O)NC(=O)C(C)(C)NC1=O [Example 59] (cyclo([Bip(4'-COOH)][4Pal][Phe(4-COOH)]G[Pro(cis-4-F)][Trp(βS-Me,4-F)][Aib]EW[Aib][Ala(pyrimidin-5-yl)]Q[Dab]G[X22])) | 0.018 | –
C[C@@H](c1c[nH]c2cccc(F)c12)[C@@H]1NC(=O)[C@@H]2C[C@H](F)CN2C(=O)CNC(=O)[C@H](Cc2ccc(C(=O)O)cc2)NC(=O)[C@H](Cc2ccncc2)NC(=O)[C@H](Cc2ccc(-c3ccc(C(=O)O)cc3)cc2)NC(=O)[C@H]2[C@@H](Cc3ccncc3)CCN2C(=O)CNC(=O)[C@H](CCN)NC(=O)[C@H](CCC(N)=O)NC(=O)[C@H](Cc2cncnc2)NC(=O)[C@@](C)(CC(=O)O)NC(=O)[C@H](Cc2c[nH]c3ccccc23)NC(=O)[C@H](CO)NC(=O)C(C)(C)NC1=O [Example 328] (cyclo([Bip(4'-COOH)][4Pal][Phe(4-COOH)]G[Pro(cis-4-F)][Trp(βS-Me,4-F)][Aib]SW[d(αMeD)][Ala(pyrimidin-5-yl)]Q[Dab]G[X4])) | 0.008 | –
C[C@@H](c1c[nH]c2cccc(F)c12)[C@@H]1NC(=O)[C@@H]2C[C@H](O)CN2C(=O)CNC(=O)[C@H](Cc2ccc(C(=O)O)cc2)NC(=O)[C@H](CC23CC(C2)C3)NC(=O)[C@H](Cc2ccc(-c3ccc(C(=O)O)cc3)cc2)NC(=O)[C@H]2C[C@@H](Cc3ccncc3)CN2C(=O)CNC(=O)[C@H](CCN)NC(=O)[C@H](CCC(N)=O)NC(=O)[C@H](Cc2cncnc2)NC(=O)[C@@](C)(CC(=O)O)NC(=O)[C@H](Cc2c[nH]c3ccccc23)NC(=O)[C@H](CO)NC(=O)C(C)(C)NC1=O [Example 160] (cyclo([Bip(4'-COOH)][Ala(1-bicyclo(1.1.1)pentyl)][Phe(4-COOH)]G[cisHyp][Trp(βS-Me,4-F)][Aib]SW[d(αMeD)][Ala(pyrimidin-5-yl)]Q[Dab]G[dPro(4R-(4-pyridylmethyl))])) | 0.023 | –
C[C@H](O)[C@@H]1NC(=O)[C@](C)(CC(=O)O)NC(=O)[C@H](Cc2c[nH]c3ccccc23)NC(=O)[C@H](CO)NC(=O)C(C)(C)NC(=O)[C@H]([C@@H](C)c2c[nH]c3cccc(F)c23)NC(=O)[C@@H]2C[C@H](F)CN2C(=O)CNC(=O)[C@H](Cc2ccc(C(=O)O)cc2)NC(=O)[C@H](CC23CC(C2)C3)NC(=O)[C@H](Cc2ccc(-c3ccc(C(=O)O)cc3)cc2)NC(=O)[C@H]2C[C@@H](Cc3ccncc3)CN2C(=O)CNC(=O)[C@H](CCN)NC(=O)[C@H](CCC(N)=O)NC1=O [Example 202] (cyclo([Bip(4'-COOH)][Ala(1-bicyclo(1.1.1)pentyl)][Phe(4-COOH)]G[Pro(cis-4-F)][Trp(βS-Me,4-F)][Aib]SW[αMeD][aThr]Q[Dab]G[dPro(4R-(4-pyridylmethyl))])) | 0.013 | –
C[C@@H](c1c[nH]c2cccc(F)c12)[C@@H]1NC(=O)[C@@H]2C[C@H](F)CN2C(=O)CNC(=O)[C@H](Cc2ccc(C(=O)O)cc2)NC(=O)[C@H](Cc2ccncc2)NC(=O)[C@H](Cc2cnc(-c3ccc(C(=O)O)cc3)nc2)NC(=O)[C@H]2C[C@@H](Cc3ccc(F)cc3)CN2C(=O)CNC(=O)[C@H](CCN)NC(=O)[C@H](CCC(N)=O)NC(=O)[C@H](Cc2cncnc2)NC(=O)C(C)(C)NC(=O)[C@H](Cc2c[nH]c3ccccc23)NC(=O)[C@H](CCC(=O)O)NC(=O)C(C)(C)NC1=O [Example 91] (cyclo([X26][4Pal][Phe(4-COOH)]G[Pro(cis-4-F)][Trp(βS-Me,4-F)][Aib]EW[Aib][Ala(pyrimidin-5-yl)]Q[Dab]G[dPro(4R-Bzl(4-F))])) | 0.054 | –
C[C@@H](c1c[nH]c2cccc(F)c12)[C@@H]1NC(=O)[C@@H]2C[C@H](F)CN2C(=O)CNC(=O)[C@H](Cc2ccc(C(=O)O)cc2)NC(=O)[C@H](Cc2ccncc2)NC(=O)[C@H](Cc2ccc(-c3ccccc3)cc2)NC(=O)[C@H]2C[C@@H](Cc3ccncc3)CN2C(=O)CNC(=O)[C@H](CNC(N)=O)NC(=O)[C@H](CCC(N)=O)NC(=O)[C@@H](CCCN)NC(=O)[C@@](C)(CC(=O)O)NC(=O)[C@H](Cc2c[nH]c3ccccc23)NC(=O)[C@H](CO)NC(=O)C(C)(C)NC1=O [Example 245] (cyclo([Bip][4Pal][Phe(4-COOH)]G[Pro(cis-4-F)][Trp(βS-Me,4-F)][Aib]SW[d(αMeD)][dOrn]Q[Dap(CONH2)]G[dPro(4R-(4-pyridylmethyl))])) | – | 0.027
C[C@@H](c1c[nH]c2cccc(F)c12)[C@@H]1NC(=O)[C@@H]2C[C@H](F)CN2C(=O)CNC(=O)[C@H](Cc2ccc(C(=O)O)cc2)NC(=O)[C@H](Cc2ccncc2)NC(=O)[C@H](Cc2ccc(-c3ccc(C(=O)O)cc3)cc2)NC(=O)[C@H]2[C@@H](Cc3ccncc3)CCN2C(=O)CNC(=O)[C@H](CCN)NC(=O)[C@H](CCC(N)=O)NC(=O)[C@H](CCc2ccccc2)NC(=O)[C@@](C)(CC(=O)O)NC(=O)[C@H](Cc2c[nH]c3ccccc23)NC(=O)[C@H](CO)NC(=O)C(C)(C)NC1=O [Example 221] (cyclo([Bip(4'-COOH)][4Pal][Phe(4-COOH)]G[Pro(cis-4-F)][Trp(βS-Me,4-F)][Aib]SW[d(αMeD)][hPhe]Q[Dab]G[X4])) | 0.02 | –
CC(=O)NCCOc1ccc(C[C@@H]2NC(=O)[C@H]3C[C@@H](Cc4ccncc4)CN3C(=O)CNC(=O)[C@H](CCN)NC(=O)[C@H](CCC(N)=O)NC(=O)[C@H](CCc3ccncc3)NC(=O)C(C)(C)NC(=O)[C@H](Cc3c[nH]c4ccccc34)NC(=O)[C@H](CCC(=O)O)NC(=O)C(C)(C)NC(=O)[C@H]([C@@H](C)c3c[nH]c4cccc(F)c34)NC(=O)[C@@H]3C[C@H](F)CN3C(=O)CNC(=O)[C@H](Cc3ccc(C(=O)O)cc3)NC(=O)[C@H](Cc3ccncc3)NC2=O)cc1 [Example 318] (cyclo([AEF](Ac)[4Pal][Phe(4-COOH)]G[Pro(cis-4-F)][Trp(βS-Me,4-F)][Aib]EW[Aib][h4Pal]Q[Dab]G[dPro(4R-(4-pyridylmethyl))])) | 0.025 | –
